{"source": "patent US20080176261A1", "about": "“Colorimetric Substrate and Methods for Detecting Poly(ADP-ribose) Polymerase Activity including PARP Enzymes PARP-1, VPARP, and Tankyrase-1” (THE BOARD OF TRUSTEES OF THE UNIVERSITY OF ILLINOIS, priority 2007, published 2008)", "key": {"PARP-1": {"target": "PARP-1 (Homo sapiens, UniProt P09874)", "sequence (P09874 whole entry)": "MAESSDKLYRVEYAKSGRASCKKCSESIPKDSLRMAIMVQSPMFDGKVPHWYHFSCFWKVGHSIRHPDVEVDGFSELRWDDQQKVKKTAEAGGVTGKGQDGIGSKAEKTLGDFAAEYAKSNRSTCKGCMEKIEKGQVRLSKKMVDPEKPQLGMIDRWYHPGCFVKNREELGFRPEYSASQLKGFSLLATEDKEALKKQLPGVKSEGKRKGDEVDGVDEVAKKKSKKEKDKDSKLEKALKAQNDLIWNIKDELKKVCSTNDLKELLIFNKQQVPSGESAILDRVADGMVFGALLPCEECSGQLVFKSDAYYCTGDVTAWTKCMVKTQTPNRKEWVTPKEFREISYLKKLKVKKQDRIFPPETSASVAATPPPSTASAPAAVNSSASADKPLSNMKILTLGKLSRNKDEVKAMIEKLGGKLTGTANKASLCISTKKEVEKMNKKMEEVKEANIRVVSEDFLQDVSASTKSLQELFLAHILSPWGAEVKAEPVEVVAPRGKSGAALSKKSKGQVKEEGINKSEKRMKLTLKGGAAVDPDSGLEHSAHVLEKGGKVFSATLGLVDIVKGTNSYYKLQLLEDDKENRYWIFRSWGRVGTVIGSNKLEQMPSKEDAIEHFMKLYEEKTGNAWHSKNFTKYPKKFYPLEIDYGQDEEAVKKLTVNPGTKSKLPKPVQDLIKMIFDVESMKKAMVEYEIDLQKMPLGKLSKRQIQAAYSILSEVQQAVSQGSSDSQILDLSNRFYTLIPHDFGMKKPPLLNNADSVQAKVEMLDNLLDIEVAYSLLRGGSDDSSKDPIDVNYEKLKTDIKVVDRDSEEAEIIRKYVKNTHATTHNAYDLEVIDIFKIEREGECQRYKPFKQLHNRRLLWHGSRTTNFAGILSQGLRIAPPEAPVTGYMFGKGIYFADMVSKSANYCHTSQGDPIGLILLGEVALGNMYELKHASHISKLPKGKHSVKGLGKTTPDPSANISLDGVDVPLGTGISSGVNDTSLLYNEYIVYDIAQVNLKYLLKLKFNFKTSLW", "test": "biochemical", "method": "(§1) For these measurements, concentrations of DPQ ranging from 0.05 nM to 10 μM were added to a 96-well plate containing PARP assay buffer and ADP-ribose-pNP and the absorbance at 405 nm was measured in triplicate.\n(§2) Determination of IC50 values for PARP inhibitors. To determine IC50 values of the PARP inhibitors, 22.5 μL of PARP assay buffer containing varying concentrations of DPQ and 20 μg/mL DNase activated DNA (for PARP-1 only) were added into the wells of a 384-well plate. A 22.5 μL volume of PARP at a concentration of 5 μg/mL PARP-1, 40 μg/mL VPARP and 40 μg/mL tankyrase-1 in PARP assay buffer was added. The reaction was initiated by the addition of 5 μL of a 2.5 mM solution of ADP-ribose-pNP in PARP assay buffer, bringing the final concentration to 2.5 μg/mL PARP-1 with 10 μg/mL DNA or 20 μg/mL VPARP or 20 μg/mL tankyrase-1, 250 μM ADP-ribose-pNP with varying concentrations of inhibitors in a total volume of 50 μL. The plate was then read every 2 minutes for 2 hours at 405 nm on a SpectraMax 384 plate reader (Molecular Devices). […]\n(§3) Data analysis. Data from the plate reader was imported into Excel where appropriate subtractions were made and the data was plotted. Graphs were analyzed using Table Curve 2D. […]"}, "tankyrase-1": {"target": "T1, tankyrase-1 (Homo sapiens, UniProt O95271)", "T1 construct": "The SAM and PARP domain of tankyrase was subcloned into pGEX-5X-1; made in house; host or cells: E. coli Rosetta", "T1 sequence (O95271 1030-1327)": "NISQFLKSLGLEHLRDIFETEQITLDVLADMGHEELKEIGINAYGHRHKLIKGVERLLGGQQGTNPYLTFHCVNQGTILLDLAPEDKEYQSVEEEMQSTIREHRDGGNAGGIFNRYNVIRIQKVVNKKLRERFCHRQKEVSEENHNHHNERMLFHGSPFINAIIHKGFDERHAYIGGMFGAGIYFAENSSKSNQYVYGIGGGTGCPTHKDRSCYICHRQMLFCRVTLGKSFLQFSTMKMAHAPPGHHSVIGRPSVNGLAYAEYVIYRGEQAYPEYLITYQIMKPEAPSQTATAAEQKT", "test": "IC50 determination of PARP inhibitor with ADP-ribose-pNP substrate, tankyrase-1", "type": "biochemical", "settings": "250 μM ADP-ribose-pNP", "method": "as §1, §2, §3"}, "VPARP": {"target": "T2, VPARP (Homo sapiens, UniProt Q9UKK3)", "T2 construct": "The plasmid with the catalytic domain of VPARP, pET28b-p193cat; made in house; host or cells: E. coli Rosetta", "T2 sequence (Q9UKK3 369-573 limits assumed)": "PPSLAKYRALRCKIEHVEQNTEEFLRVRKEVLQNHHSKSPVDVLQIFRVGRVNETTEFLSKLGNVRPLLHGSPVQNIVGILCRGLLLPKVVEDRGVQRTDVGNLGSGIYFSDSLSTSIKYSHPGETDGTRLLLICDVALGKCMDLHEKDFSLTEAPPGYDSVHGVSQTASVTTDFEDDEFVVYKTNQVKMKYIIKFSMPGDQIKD", "test": "IC50 determination of PARP inhibitor with ADP-ribose-pNP substrate, VPARP", "type": "biochemical", "settings": "250 μM ADP-ribose-pNP", "method": "as §1, §2, §3"}}}
{"smiles": "O=C1NCCc2c(OCCCCN3CCCCC3)cccc21", "note": "[DPQ, 3,4-Dihydro-5-[4-(1-piperidinyl)butoxyl]-1 (2H)-isoquinolinone]", "values": [{"measurement": "IC50", "setting": "PARP-1", "result": 23, "unit": "nM"}, {"measurement": "IC50", "setting": "tankyrase-1", "result": 33, "unit": "nM"}, {"measurement": "IC50", "setting": "VPARP", "result": 281, "unit": "nM"}]}
